Laboratory results published in patent publication US20120164104A1, “Composition and Methods of Treating Viral Infections and Viral Induced Tumors” (Chimerix, Inc., priority 2009, published 2012).

Assays:
Type in all cases: cell-based
JCV Mad-4 [1] = experiment: JCV VP1 late gene expression in COS-7 cells (immunofluorescence); details: 7 d.p.i.
Excerpt: FIG. 16 illustrates the effect of increasing concentrations of CMX001 on expression of JCV proteins. Indirect immunofluorescence of JCV-infected COS-7 cells treated with indicated concentrations of CMX001, fixed 7 d.p.i. and stained with rabbit anti-VP1 serum (red) for visualization of the late capsid protein VP1 and with Höchst 33342 dye to show DNA (blue). The merged pictures are shown in the right panel.
Cells were fixed with 4% p-formaldehyde (PFA) in phosphate-buffered saline, pH6.8 (PBS) at room temperature for 20 min and permeabilized with 0.2% Triton X-100 in PBS at room temperature for 10 min. After washing twice with PBS at room temperature for 5 min, PFA was quenched with 0.5 M NH4Cl in PBS at room temperature for 7 min followed washing twice with PBS at room temperature for 5 min. Blocking of unspecific binding sites was done with 3% milk in PBS at 37° C. for 15 min. Primary antibody (rabbit anti-VP1 1:300 in 3% milk PBS) was incubated at 37° C. for 45-60 min. Cells were washed twice with PBS on a shaker at room temperature for 5 min. Secondary antibody (chicken anti-rabbit Cy3 1:2000) and 5 μg/ml Höchst 33342 dye to stain DNA was given to the cells then incubated at 37° C. for 45-60 min. Cells were washed twice with PBS as before. Coverslips were mounted in NPropylgallat. […]

tumor cell lines = experiment: Cell proliferation assay (MTS or SRB), panel of human tumor cell lines; details: 22 tumor cell lines, read-out: IC50 values in the tumor cell lines (range over panel)
Procedure: The cell growth inhibitory activities of CMX001, Cidofovir, and a standard agent (varies depending on the tumor type of the cell lines) were evaluated in a panel of cell lines derived from multiple tumor types using a MTS or SRB based cell proliferation assay.
In vitro cell proliferation assays were performed using a 96-well plate based MTSassay (CellTiter 96° AqueousOne Solution Cell Proliferation Assay, Promega) or SRB (Sulforhodamine-B) assay (1-3). Briefly, cells were plated in 100 μl medium on day 0 in 96-well microtiter plates (Falcon #3072). […]
After incubation for 3 days at 37° C. in a humidified incubator, viable cells were measured either by MTS or SRB assay. For MTS assay, 20 μl of a 20:1 mixture of (3-(4,5-dimethylthiazol-2-yl)-5-(3-carboxymethoxyphenyl)-2-(4-sulfophenyl)-2H-tetrazolium, inner salt (MTS, 2 mg/ml) and an electron coupling reagent, phenazine methosulfate (PMS, 0.92 mg/ml in DPBS), was added to each well and incubated for 3 hours at 37° C. Absorbance was measured using a BioTek Synergy™ HT Multiple Detection microplate reader at 490 nm. For SRB assay, cells were fixed in situ with 50 μL of cold trichloroacetic acid (TCA, final concentration at 10% w/v) for 60 minutes. Cells were then washed 5 times with H2O and air-dried. […]
Raw data were acquired using a BioTek Synergy™ HT Multiple Detection microplate reader and imported into Microsoft Excel for analysis. […]

JCV Mad-4 [2] = experiment: Extracellular JCV load in JCV-infected COS-7 cells (qPCR)
Procedure: COS-7 supernatants were harvested 5 […] post start of treatment with indicated CMX001 concentrations. JCV load was measured by qPCR and input virus subtracted. DNA load in untreated cells (5.04×10 E+9 geq/ml) was set as 100%. Replication of JCV is shown as percentage of untreated cells to determine the IC-50 and IC-90. […] Supernatants from CMX001-treated and untreated JCV-infected COS-7 cells were harvested at indicated timepoints after infection and JCV load measured by qPCR. Data are presented as JCV load in log geq/ml. COS-7 or astrocyte cells were infected at a confluence of 60-70% with JCV(Mad-4) at an estimated TCID50 of 0.2. After 2 h incubation at 37° C., supernatants were replaced with fresh medium without or with increasing concentration CMX001. […] JCV loads were quantified after DNA extraction from 100 ul cell culture supernatants and the Corbett X-tractor Gene and the Corbett VX reagents (Qiagen, Hombrechtikon, Switzerland). The real-time PCR protocol for detection of JCV DNA samples targets the JCV large T coding sequence and has been described elsewhere (5). To investigate the effect of CMX001 on JCV progeny, increasing concentrations of CMX001 were added at 2 h p.i. and supernatants harvested at 5 d.p.i. It was observed that CMX001 reduced the extracellular JCV load in a concentration dependent manner (FIG. 12).

COS-7 = experiment: Inspection of COS-7 by phase contrast microscopy; details: 7 day exposure to CMX001 0.6 μM

CCCCCCCCCCCCCCCCOCCCOP(=O)(O)CO[C@H](CO)Cn1ccc(N)nc1=O [CMX001]
JCV VP1 signal by immunofluorescence (JCV Mad-4 [1]; CMX001 1.25 μM): significant reduction
JCV VP1 positive cells by immunofluorescence (JCV Mad-4 [1]; CMX001 5 μM): essentially no VP1 positive cells could be observed
IC50 (tumor cell lines): 6600 to 100000 nM
change in the JCV load over 7 days (JCV Mad-4 [2]; 5 nM CMX001, COS-7): less than 1 log
IC50 (JCV Mad-4 [2]; 120 h, COS-7, day 5 p.i., viral input subtracted, read-out: inhibitory concentration IC-50 (extracellular JCV load)): 150 nM
IC90 (JCV Mad-4 [2]; 120 h, COS-7, day 5 p.i., viral input subtracted, read-out: inhibitory concentration IC-90 (extracellular JCV load)): 600 nM
reduction of JCV viral load (JCV Mad-4 [2]; CMX001 0.15 μM, day 5 p.i.): > 50%
IC-90 concentration lower than concentrations reported for CDV inhibition of JCV (JCV Mad-4 [2]; CMX001 0.6 μM, COS-7): 2 orders of magnitude
viral load at 7 d.p.i. relative to untreated cells at 3 d.p.i. (JCV Mad-4 [2]; CMX001 5 uM, COS-7): 91%
signs of impaired viability (COS-7): did not reveal any signs of impaired viability
